Test results: patent US11000033B2, “Ketone or oxime compound, and herbicide” (NISSAN CHEMICAL CORPORATION, priority 2014, dated 2021)

Legend:
Format in all cases: in vivo
[1] = tested on: Monochoria vaginalis; assay: Test Example 1: herbicidal activity, application before weed generation in submerged conditions (symbol C); conditions: application herbicide amount 320 g/ha
Procedure, shortened: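 Paddy pre-emergence test. Formulated emulsion, water-diluted to a predetermined rate, is applied to floodwater on sowing day; rice transplanted at 2.5 leaves. Effect read at 3 weeks on a 0–5 herbicidal-ratio scale.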

[2] = tested on: Echinochloa oryzacola Vasing.; assay: Test Example 2: herbicidal activity, application during weed generation in submerged conditions (symbol A); conditions: Table 23; application herbicide amount 320 g/ha; grade 0-5 by criteria of Test Example 1
Procedure, shortened: (§1)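 Paddy pot test, submerged (4 cm water), alluvial soil, mixed sowing; greenhouse 25–30° C. Emulsion formulation diluted to predetermined rate, applied onto floodwater at 1–2 leaf stage. Visual herbicidal rating at 3 wk post-treatment.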

[3] = tested on: Scirpus juncoides; assay: Test Example 2: herbicidal activity, application during weed generation in submerged conditions (symbol B); conditions: Table 23; application herbicide amount 320 g/ha; grade 0-5 by criteria of Test Example 1
Procedure, shortened: as §1

[4] = tested on: Monochoria vaginalis; assay: Test Example 2: herbicidal activity, application during weed generation in submerged conditions (symbol C); conditions: Table 23; application herbicide amount 320 g/ha; grade 0-5 by criteria of Test Example 1
Procedure, shortened: as §1

[5] = tested on: Digitaria ciliaris; assay: Test Example 4: herbicidal effect by soil treatment (symbol F)
Procedure, shortened: (§2)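 Seeds were sown in sterilized diluvial soil, covered with about 1.5 cm of soil, and the soil surface was sprayed with a water-diluted emulsion of the compound at a predetermined rate. Plants grew in a greenhouse at 25° C. to 30° C.; effects were scored visually 3 weeks after application.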

[6] = tested on: Echinochloa crus-galli var. crus-galli; assay: Test Example 4: herbicidal effect by soil treatment (symbol H)
Procedure, shortened: as §2

[7] = tested on: Avena fatua; assay: Test Example 4: herbicidal effect by soil treatment (symbol I)
Procedure, shortened: as §2

[8] = tested on: Abutilon theophrasti; assay: Test Example 4: herbicidal effect by soil treatment (symbol M)
Procedure, shortened: as §2

[9] = tested on: Chenopodium album; assay: Test Example 4: herbicidal effect by soil treatment (symbol O); conditions: 320 g/ha
Procedure, shortened: as §2

[10] = tested on: corn; assay: Test Example 4: effect on crop by soil treatment (symbol c); conditions: for c: corn, effect grade on crop: 320 g/ha; for c: corn, effect on crop grade: application herbicide amount 320 g/ha
Procedure, shortened: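 The test used sterilized diluvial soil. Seed was set down in spots and overlaid with about 1.5 cm of soil before growth in a greenhouse kept at 25° C. to 30° C.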

[11] = tested on: rapeseed; assay: Test Example 4: effect on crop by soil treatment (symbol g); conditions: for g: rapeseed, effect grade on crop: 320 g/ha; for g: rapeseed, effect on crop grade: application herbicide amount 320 g/ha
Procedure, shortened: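 Crop seeds, among them rice, wheat, beet and rapeseed, were sown in sterilized diluvial soil and covered with about 1.5 cm of soil. Boxes were kept in a greenhouse at 25° C. to 30° C. for plant growth.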

[12] = tested on: Lolium multiflorum Lam.; assay: Test Example 5: herbicidal effect by foliage application, plastic box (symbol K); conditions: 320 g/ha, 3 weeks after application
Procedure, shortened: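 Sowing in sterilized diluvial soil, 14 days' greenhouse growth at 25° C. to 30° C., then uniform small-sprayer foliar application of aqueous emulsion dilution; plants scored three weeks afterwards.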

[13] = tested on: corn; assay: Test Example 5: effect on crop by foliage application, plastic box (symbol c); conditions: 320 g/ha, 3 weeks after application
Procedure, shortened: (§3)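 Sterilized diluvial soil, plastic box (21 × 13 × 7 cm); spot sowing, ~1.5 cm soil cover; greenhouse 25–30° C.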

[14] = tested on: soybean; assay: Test Example 5: effect on crop by foliage application, plastic box (symbol d); conditions: 320 g/ha, 3 weeks after application
Procedure, shortened: as §3

[15] = tested on: rice plant; assay: Test Example 5: effect on crop by foliage application, plastic box (symbol b); conditions: 320 g/ha, 3 weeks after application
Procedure, shortened: as §3

[16] = tested on: Apera spica-venti; assay: Test Example 4: herbicidal effect by soil treatment (symbol L); conditions: application herbicide amount 320 g/ha
Procedure, shortened: as §2

[17] = application herbicide amount 320 g/ha

SMILES: CON=C(C)CC1CC(OS(=O)(=O)c2ccc(C)cc2)=C(c2c(C)cc(C)cc2C)C1=O (stereo not drawn) [1-161]
- Herbicidal effect grade, C: Monochoria vaginalis [1]: 1 (Herbicidal ratio of 5% or higher and lower than 20%)
- Herbicidal effect grade, A: Echinochloa oryzacola Vasing. [2]: 5 (Herbicidal ratio of 90% or more (almost completely withered))
- Herbicidal effect grade, B: Scirpus juncoides [3]: 4 (Herbicidal ratio of 70% or higher and lower than 90%)
- Herbicidal effect grade, C: Monochoria vaginalis [4]: 3 (Herbicidal ratio of 40% or higher and lower than 70%)
- F: Digitaria ciliaris, herbicidal effect grade ([5]; 320 g/ha): 5 (Herbicidal ratio of 90% or more (almost completely withered))
- H: Echinochloa crus-galli var. crus-galli, herbicidal effect grade ([6]; 320 g/ha): 0 (Herbicidal ratio of 5% or lower (almost no effect))
- I: Avena fatua, herbicidal effect grade ([7]; 320 g/ha): 0 (Herbicidal ratio of 5% or lower (almost no effect))
- M: Abutilon theophrasti, herbicidal effect grade ([8]; 320 g/ha): 0 (Herbicidal ratio of 5% or lower (almost no effect))
- O: Chenopodium album, herbicidal effect grade [9]: 0 (Herbicidal ratio of 5% or lower (almost no effect))
- c: corn, effect grade on crop [10]: 0 (Herbicidal ratio of 5% or lower (almost no effect))
- g: rapeseed, effect grade on crop [11]: 2 (Herbicidal ratio of 20% or higher and lower than 40%)
- K: Lolium multiflorum Lam., herbicidal effect grade [12]: 5 (Herbicidal ratio of 90% or more (almost completely withered))
- c: corn, effect on crop grade [13]: 1 (Herbicidal ratio of 5% or higher and lower than 20%)
- d: soybean, effect on crop grade [14]: 0 (Herbicidal ratio of 5% or lower (almost no effect))
- b: directly sowed rice plant, effect on crop grade [15]: 3 (Herbicidal ratio of 40% or higher and lower than 70%)

SMILES: CON=C(C)CC1CC(OC(=O)Cc2ccc(OC)cc2)=C(c2c(C)cc(C)cc2C)C1=O (stereo not drawn) [1-156]
- Herbicidal effect grade, C: Monochoria vaginalis [1]: 1 (Herbicidal ratio of 5% or higher and lower than 20%)
- Herbicidal effect grade, A: Echinochloa oryzacola Vasing. [2]: 5 (Herbicidal ratio of 90% or more (almost completely withered))
- Herbicidal effect grade, B: Scirpus juncoides [3]: 5 (Herbicidal ratio of 90% or more (almost completely withered))
- Herbicidal effect grade, C: Monochoria vaginalis [4]: 3 (Herbicidal ratio of 40% or higher and lower than 70%)
- F: Digitaria ciliaris, herbicidal effect grade ([5]; 320 g/ha): 5 (Herbicidal ratio of 90% or more (almost completely withered))
- H: Echinochloa crus-galli var. crus-galli, herbicidal effect grade ([6]; 320 g/ha): 5 (Herbicidal ratio of 90% or more (almost completely withered))
- I: Avena fatua, herbicidal effect grade ([7]; 320 g/ha): 4 (Herbicidal ratio of 70% or higher and lower than 90%)
- M: Abutilon theophrasti, herbicidal effect grade ([8]; 320 g/ha): 5 (Herbicidal ratio of 90% or more (almost completely withered))
- O: Chenopodium album, herbicidal effect grade [9]: 0 (Herbicidal ratio of 5% or lower (almost no effect))
- c: corn, effect grade on crop [10]: 1 (Herbicidal ratio of 5% or higher and lower than 20%)
- g: rapeseed, effect grade on crop [11]: 4 (Herbicidal ratio of 70% or higher and lower than 90%)
- K: Lolium multiflorum Lam., herbicidal effect grade [12]: 5 (Herbicidal ratio of 90% or more (almost completely withered))
- c: corn, effect on crop grade [13]: 4 (Herbicidal ratio of 70% or higher and lower than 90%)
- d: soybean, effect on crop grade [14]: 3 (Herbicidal ratio of 40% or higher and lower than 70%)
- b: directly sowed rice plant, effect on crop grade [15]: 5 (Herbicidal ratio of 90% or more (almost completely withered))

SMILES: C=Cc1cc(C)c(C2=C(O)CC(CC(C)=NOC)C2=O)c(C)c1 (mixture of isomers) [6-031]
- Herbicidal effect grade, C: Monochoria vaginalis [1]: 0 (Herbicidal ratio of 5% or lower (almost no effect))
- Herbicidal effect grade, A: Echinochloa oryzacola Vasing. [2]: 4 (Herbicidal ratio of 70% or higher and lower than 90%)
- Herbicidal effect grade, B: Scirpus juncoides [3]: 0 (Herbicidal ratio of 5% or lower (almost no effect))
- Herbicidal effect grade, C: Monochoria vaginalis [4]: 0 (Herbicidal ratio of 5% or lower (almost no effect))
- F: Digitaria ciliaris, herbicidal effect grade [5, 17]: 0 (Herbicidal ratio of 5% or lower (almost no effect))
- H: Echinochloa crus-galli var. crus-galli, herbicidal effect grade [6, 17]: 0 (Herbicidal ratio of 5% or lower (almost no effect))
- I: Avena fatua, herbicidal effect grade [7, 17]: 0 (Herbicidal ratio of 5% or lower (almost no effect))
- L: Apera spica-venti, herbicidal effect grade [16]: 0 (Herbicidal ratio of 5% or lower (almost no effect))
- M: Abutilon theophrasti, herbicidal effect grade [8, 17]: 0 (Herbicidal ratio of 5% or lower (almost no effect))
- c: corn, effect on crop grade [10]: 0 (Herbicidal ratio of 5% or lower (almost no effect))
- g: rapeseed, effect on crop grade [11]: 3 (Herbicidal ratio of 40% or higher and lower than 70%)
- K: Lolium multiflorum Lam., herbicidal effect grade [12]: 5 (Herbicidal ratio of 90% or more (almost completely withered))
- c: corn, effect on crop grade [13]: 4 (Herbicidal ratio of 70% or higher and lower than 90%)
- d: soybean, effect on crop grade [14]: 0 (Herbicidal ratio of 5% or lower (almost no effect))
- b: directly sowed rice plant, effect on crop grade [15]: 5 (Herbicidal ratio of 90% or more (almost completely withered))

SMILES: CON=C(C)CC1CC(O)=C(c2c(C)cc(C#CC3CC3)cc2C)C1=O (mixture of isomers) [6-010]
- Herbicidal effect grade, C: Monochoria vaginalis [1]: 1 (Herbicidal ratio of 5% or higher and lower than 20%)
- Herbicidal effect grade, A: Echinochloa oryzacola Vasing. [2]: 5 (Herbicidal ratio of 90% or more (almost completely withered))
- Herbicidal effect grade, B: Scirpus juncoides [3]: 3 (Herbicidal ratio of 40% or higher and lower than 70%)
- Herbicidal effect grade, C: Monochoria vaginalis [4]: 0 (Herbicidal ratio of 5% or lower (almost no effect))
- F: Digitaria ciliaris, herbicidal effect grade [5, 17]: 5 (Herbicidal ratio of 90% or more (almost completely withered))
- H: Echinochloa crus-galli var. crus-galli, herbicidal effect grade [6, 17]: 5 (Herbicidal ratio of 90% or more (almost completely withered))
- I: Avena fatua, herbicidal effect grade [7, 17]: 3 (Herbicidal ratio of 40% or higher and lower than 70%)
- L: Apera spica-venti, herbicidal effect grade [16]: 5 (Herbicidal ratio of 90% or more (almost completely withered))
- M: Abutilon theophrasti, herbicidal effect grade [8, 17]: 3 (Herbicidal ratio of 40% or higher and lower than 70%)
- c: corn, effect on crop grade [10]: 4 (Herbicidal ratio of 70% or higher and lower than 90%)
- g: rapeseed, effect on crop grade [11]: 0 (Herbicidal ratio of 5% or lower (almost no effect))
- K: Lolium multiflorum Lam., herbicidal effect grade [12]: 4 (Herbicidal ratio of 70% or higher and lower than 90%)
- c: corn, effect on crop grade [13]: 4 (Herbicidal ratio of 70% or higher and lower than 90%)
- d: soybean, effect on crop grade [14]: 3 (Herbicidal ratio of 40% or higher and lower than 70%)
- b: directly sowed rice plant, effect on crop grade [15]: 5 (Herbicidal ratio of 90% or more (almost completely withered))

SMILES: CCc1cc(Br)cc(C)c1C1=C(O)CC(C(C(=O)OC)C(C)=NOC)C1=O (stereo not drawn) [6-002]
- Herbicidal effect grade, C: Monochoria vaginalis [1]: 0 (Herbicidal ratio of 5% or lower (almost no effect))
- Herbicidal effect grade, A: Echinochloa oryzacola Vasing. [2]: 0 (Herbicidal ratio of 5% or lower (almost no effect))
- Herbicidal effect grade, B: Scirpus juncoides [3]: 0 (Herbicidal ratio of 5% or lower (almost no effect))
- Herbicidal effect grade, C: Monochoria vaginalis [4]: 0 (Herbicidal ratio of 5% or lower (almost no effect))
- F: Digitaria ciliaris, herbicidal effect grade [5, 17]: 2 (Herbicidal ratio of 20% or higher and lower than 40%)
- H: Echinochloa crus-galli var. crus-galli, herbicidal effect grade [6, 17]: 2 (Herbicidal ratio of 20% or higher and lower than 40%)
- I: Avena fatua, herbicidal effect grade [7, 17]: 0 (Herbicidal ratio of 5% or lower (almost no effect))
- L: Apera spica-venti, herbicidal effect grade [16]: 4 (Herbicidal ratio of 70% or higher and lower than 90%)
- M: Abutilon theophrasti, herbicidal effect grade [8, 17]: 0 (Herbicidal ratio of 5% or lower (almost no effect))
- c: corn, effect on crop grade [10]: 0 (Herbicidal ratio of 5% or lower (almost no effect))
- g: rapeseed, effect on crop grade [11]: 0 (Herbicidal ratio of 5% or lower (almost no effect))
- K: Lolium multiflorum Lam., herbicidal effect grade [12]: 5 (Herbicidal ratio of 90% or more (almost completely withered))
- c: corn, effect on crop grade [13]: 5 (Herbicidal ratio of 90% or more (almost completely withered))
- d: soybean, effect on crop grade [14]: 0 (Herbicidal ratio of 5% or lower (almost no effect))
- b: directly sowed rice plant, effect on crop grade [15]: 5 (Herbicidal ratio of 90% or more (almost completely withered))
